Assay results taken from patent US9694019B2, “Compositions and methods for treating bone diseases and broken bones” (BRIGHAM YOUNG UNIVERSITY, priority 2011, dated 2017).

Columns and labels:
MC3T3-E1 cells = assay: Quantitative spectroscopic ALP (alkaline phosphatase) assay in MC3T3-E1 cells; type: cell-based; details: MC3T3-E1 day 4 of differentiation, with or without 200 ng/mL rhBMP-2 and 50 μM sodium alginate; compared with CSA-90 (FIG. 4)
Method: MC3T3-E1 cells at day 4 of differentiation were treated with or without 200 ng/mL rhBMP-2 (recombinant human BMP-2), 0-50 μM CSA-90, and with or without 50 μM sodium alginate. Quantitative spectroscopic ALP (alkaline phosphatase) assays were performed in on multiple wells and normalized to viable cell number. Experimental assays were carried out twice independently. Data for this analysis is provided in FIG. 4 (from left to right 0, 0.5, 1, 5, 10, 25, and 50 μM CSA-90 were tested with or without BMP-2 and Algin).

primary human MSC cells = assay: BMP regulation: gene expression array (SABiosciences PAHS-026) in primary human MSC cells; type: cell-based; details: hMSC, 8 hours
Method: SABisosciences custom array plates (Cat#PAHS-026) were used to measure BMP expression. These array plates are validated for efficiency when used at recommended conditions and reagents. On day 1, primary human MSC cells were plated at 200,000 cell/well using 6-well plates with 10% FBS, Penicillin and Streptomycin 10 mL per Liter, in recommended media. Only early passages of cells were used.
On day 2, cells were treated with compounds dissolved in DMSO diluted 1:1000 or more to avoid solvent effects. A non-treated negative control group was evaluated (FIG. 1, “Control Group”) along with a positive control group containing PS1 at 0.1 μM (FIG. 1, “Group 1”). Final testing concentration for CSA-90 was 5.0 μM (FIG. 1, “Group 2”), 2.5 μM (FIG. 1, “Group 3”), and 1.2 μM (FIG. 1, “Group 4”). Treatment lasted 8 hours, followed by RNA isolation using a QIAGEN Miniprep Kit. RNA was measured at 260/280 nm using NanoDrop2000 and normalized to 250 ng. cDNA preparation was done using QIAGEN First Strand kit.

quadriceps of mice = assay: Ectopic bone formation in quadriceps of mice (muscle pouch model), XR and microCT; type: in vivo
Method: 10 μg rhBMP-2 was implanted into the quadriceps of mice with 0, 25 μg, or 250 μg CSA-90. A control group received 250 μg CSA-90 alone (without rhBMP-2). Bone was allowed to form ectopically over 3 weeks. Specimens were then harvested for XR (FIG. 5) and microCT (FIG. 7).
MicroCT scans were performed on all samples using a Skyscan 1174 microCT scanner. Scanning data confirmed increases in bone volume (BV) with the addition of CSA-90 (See FIG. 6).

[1] = v. untreated control, concentration not given

For `CCCCCCCCNCCC[C@@H](C)[C@H]1CC[C@H]2[C@@H]3[C@H](OCCCN)C[C@@H]4C[C@H](OCCCN)CC[C@]4(C)[C@H]3C[C@H](OCCCN)[C@]12C` [CSA-13], the “ALP (alkaline phosphatase) activity normalized to viable cell number” value (MC3T3-E1 cells) was “Comparable results”.
In the case of `CCCCCN(CCCCC)CCC[C@@H](C)[C@H]1CC[C@H]2[C@@H]3[C@H](OCCCN)C[C@@H]4C[C@H](OCCCN)CC[C@]4(C)[C@H]3C[C@H](OCCCN)[C@]12C` [CSA-90], the “up-regulation of BMP-2 mRNA expression” value (primary human MSC cells; 5 μM concentration) is reported as roughly 6 fold, the “Fold Up-Regulation ACTB (Actin, beta)” value (primary human MSC cells; [1]) is reported as −4.1173 fold and the “Fold Up-Regulation AHSG (Alpha-2-HS-glycoprotein)” value (primary human MSC cells; [1]) is reported as 1.4077 fold. The “Fold Up-Regulation ALPL (Alkaline phosphatase, liver/bone/kidney)” value (primary human MSC cells; [1]) was −5.8397 fold, the “Fold Up-Regulation AMBN (Ameloblastin)” value (primary human MSC cells; [1]) was −1.0298 fold and the “Fold Up-Regulation AMELY (Amelogenin, Y-linked)” value (primary human MSC cells; [1]) was −1.008 fold. The “Fold Up-Regulation ANXA5 (Annexin A5)” value (primary human MSC cells; [1]) was −1.0287 fold, the “Fold Up-Regulation BGLAP (Bone gamma-carboxyglutamate (gla) protein)” value (primary human MSC cells; [1]) was −1.1336 fold and the “Fold Up-Regulation BGN (Biglycan)” value (primary human MSC cells; [1]) was −2.2679 fold. The “Fold Up-Regulation BMP-1 (Bone morphogenetic protein 1)” value (primary human MSC cells; [1]) was −1.4719 fold, the “Fold Up-Regulation BMP-2 (Bone morphogenetic protein 2)” value (primary human MSC cells; [1]) was 6.7295 fold and the “Fold Up-Regulation BMP-3 (Bone morphogenetic protein 3)” value (primary human MSC cells; [1]) was 1.3888 fold. For the same molecule, the “Fold Up-Regulation BMP-4 (Bone morphogenetic protein 4)” value (primary human MSC cells; [1]) was −3.7558 fold, the “Fold Up-Regulation BMP-5 (Bone morphogenetic protein 5)” value (primary human MSC cells; [1]) was 2.1036 fold and the “Fold Up-Regulation BMP-6 (Bone morphogenetic protein 6)” value (primary human MSC cells; [1]) was 14.8826 fold. For the same molecule, the “Fold Up-Regulation CALCR (CALCITONIN RECEPTOR)” value (primary human MSC cells; [1]) was 2.1036 fold, the “Fold Up-Regulation CD36 (CD36 molecule, thrombospondin receptor)” value (primary human MSC cells; [1]) was −2.3276 fold and the “Fold Up-Regulation CDH11 (Cadherin 11, type 2, OB-cadherin)” value (primary human MSC cells; [1]) was −2.6119 fold. For the same molecule, the “Fold Up-Regulation COL1A1 (Collagen, type I, alpha 1)” value (primary human MSC cells; [1]) was −1.9589 fold, the “Fold Up-Regulation COL1A2 (Collagen, type I, alpha 2)” value (primary human MSC cells; [1]) was −1.525 fold and the “Fold Up-Regulation COL2A1 (Collagen, type II, alpha 1)” value (primary human MSC cells; [1]) was 1.0817 fold. The “Fold Up-Regulation COL3A1 (Collagen, type III, alpha 1)” value (primary human MSC cells; [1]) was 1.1521 fold, the “Fold Up-Regulation COL4A3 (Collagen, type IV, alpha 3)” value (primary human MSC cells; [1]) was −9.7105 fold and the “Fold Up-Regulation COL5A1 (Collagen, type V, alpha 1)” value (primary human MSC cells; [1]) was −1.603 fold. The “Fold Up-Regulation COL10A1 (Collagen, type X, alpha 1)” value (primary human MSC cells; [1]) was 1.0439 fold, the “Fold Up-Regulation COL11A1 (Collagen, type XI, alpha 1)” value (primary human MSC cells; [1]) was −2.8055 fold and the “Fold Up-Regulation COL12A1 (Collagen, type XII, alpha 1)” value (primary human MSC cells; [1]) was −1.366 fold. The “Fold Up-Regulation COL14A1 (Collagen, type XIV, alpha 1)” value (primary human MSC cells; [1]) was 1.0661 fold, the “Fold Up-Regulation COL15A1 (Collagen, type XV, alpha 1)” value (primary human MSC cells; [1]) was 1.1217 fold and the “Fold Up-Regulation COMP (Cartilage oligomeric matrix protein)” value (primary human MSC cells; [1]) was 1.5909 fold. The “Fold Up-Regulation CSF2 (Colony stimulating factor 2)” value (primary human MSC cells; [1]) was 3.2231 fold, the “Fold Up-Regulation CSF3 (Colony stimulating factor 3)” value (primary human MSC cells; [1]) was 1.3504 fold and the “Fold Up-Regulation CTSK (Cathepsin K)” value (primary human MSC cells; [1]) was 1.0843 fold. For the same molecule, the “Fold Up-Regulation DMP1 (Dentin matrix acidic phosphoprotein 1)” value (primary human MSC cells; [1]) was 2.1036 fold, the “Fold Up-Regulation DSPP (Dentin sialophosphoprotein)” value (primary human MSC cells; [1]) was 2.1036 fold and the “Fold Up-Regulation EGF (Epidermal growth factor)” value (primary human MSC cells; [1]) was −1.3949 fold. The “Fold Up-Regulation EGFR (Epidermal growth factor receptor)” value (primary human MSC cells; [1]) was 1.0894 fold, the “Fold Up-Regulation ENAM (Enamelin)” value (primary human MSC cells; [1]) was 2.1036 fold and the “Fold Up-Regulation FGF1 (Fibroblast growth factor 1)” value (primary human MSC cells; [1]) was −1.7551 fold. The “Fold Up-Regulation FGF2 (Fibroblast growth factor 2)” value (primary human MSC cells; [1]) was −1.0498 fold, the “Fold Up-Regulation FGF3 (Fibroblast growth factor 3)” value (primary human MSC cells; [1]) was −1.5325 fold and the “Fold Up-Regulation FGFR1 (Fibroblast growth factor receptor 1)” value (primary human MSC cells; [1]) was −1.5568 fold. The “Fold Up-Regulation FGFR2 (Fibroblast growth factor receptor 2)” value (primary human MSC cells; [1]) was −3.1961 fold, the “Fold Up-Regulation FLT1 (Fms-related tyrosine kinase 1)” value (primary human MSC cells; [1]) was −2.1823 fold and the “Fold Up-Regulation FN1 (Fibronectin 1)” value (primary human MSC cells; [1]) was −1.4863 fold. The “Fold Up-Regulation GAPDH (Glyceraldehyde-3-phosphate dehydrogenase)” value (primary human MSC cells; [1]) was −1.0501 fold, the “Fold Up-Regulation GDF10 (Growth differentiation factor 10)” value (primary human MSC cells; [1]) was 2.1036 fold and the “Fold Up-Regulation ICAM1 (Intercellular adhesion molecule 1)” value (primary human MSC cells; [1]) was 1.3786 fold. The “Fold Up-Regulation IGF1 (Insulin-like growth factor 1)” value (primary human MSC cells; [1]) was 15.8816 fold, the “Fold Up-Regulation IGF1R (Insulin-like growth factor 1 receptor)” value (primary human MSC cells; [1]) was 1.6854 fold and the “Fold Up-Regulation IGF2 (Insulin-like growth factor 2)” value (primary human MSC cells; [1]) was −2.6412 fold. The “Fold Up-Regulation ITGA1 (Integrin, alpha 1)” value (primary human MSC cells; [1]) was 1.2807 fold, the “Fold Up-Regulation ITGA2 (Integrin, alpha 2)” value (primary human MSC cells; [1]) was 1.6174 fold and the “Fold Up-Regulation ITGA3 (Integrin, alpha 3)” value (primary human MSC cells; [1]) was −2.1172 fold. For the same molecule, the “Fold Up-Regulation ITGAM (Integrin, alpha M)” value (primary human MSC cells; [1]) was 2.5974 fold, the “Fold Up-Regulation ITGB1 (Integrin, beta 1)” value (primary human MSC cells; [1]) was −1.3007 fold and the “Fold Up-Regulation MMP2 (Matrix metallopeptidase 2)” value (primary human MSC cells; [1]) was −1.6002 fold. For the same molecule, the “Fold Up-Regulation MMP8 (Matrix metallopeptidase 8)” value (primary human MSC cells; [1]) was −1.0189 fold, the “Fold Up-Regulation MMP9 (Matrix metallopeptidase 9)” value (primary human MSC cells; [1]) was 2.0169 fold and the “Fold Up-Regulation MMP10 (Matrix metallopeptidase 10)” value (primary human MSC cells; [1]) was 2.1233 fold. The “Fold Up-Regulation MSX1 (Msh homeobox 1)” value (primary human MSC cells; [1]) was −1.1393 fold, the “Fold Up-Regulation NFKB1 (Nuclear factor of kappa light polypeptide gene enhancer in B-cells 1)” value (primary human MSC cells; [1]) was 1.0365 fold and the “Fold Up-Regulation PDGFA (Platelet-derived growth factor alpha polypeptide)” value (primary human MSC cells; [1]) was −1.1381 fold. For the same molecule, the “Fold Up-Regulation PHEX (Phosphate regulating endopeptidase homolog, X-linked)” value (primary human MSC cells; [1]) was −2.0881 fold, the “Fold Up-Regulation RUNX2 (Runt-related transcription factor 2)” value (primary human MSC cells; [1]) was −1.1998 fold and the “Fold Up-Regulation SCARB1 (Scavenger receptor class B, member 1)” value (primary human MSC cells; [1]) was −2.7137 fold. For the same molecule, the “Fold Up-Regulation SERPIN H1 (Serpin peptidase inhibitor, clade H, member 1)” value (primary human MSC cells; [1]) was −2.6434 fold, the “Fold Up-Regulation SMAD1 (SMAD family member 1)” value (primary human MSC cells; [1]) was −1.2436 fold and the “Fold Up-Regulation SMAD2 (SMAD family member 2)” value (primary human MSC cells; [1]) was −1.2016 fold. For the same molecule, the “Fold Up-Regulation SMAD3 (SMAD family member 3)” value (primary human MSC cells; [1]) was −2.8152 fold, the “Fold Up-Regulation SMAD4 (SMAD family member 4)” value (primary human MSC cells; [1]) was −1.0529 fold and the “Fold Up-Regulation STATH (Statherin)” value (primary human MSC cells; [1]) was 2.5891 fold. The “Fold Up-Regulation TFIP11 (Tuftelin interacting protein 11)” value (primary human MSC cells; [1]) was −1.6592 fold, the “Fold Up-Regulation TGFB1 (Transforming growth factor, beta 1)” value (primary human MSC cells; [1]) was −1.3031 fold and the “Fold Up-Regulation TGFB2 (Transforming growth factor, beta 2)” value (primary human MSC cells; [1]) was 1.619 fold. For the same molecule, the “Fold Up-Regulation TGFB3 (Transforming growth factor, beta 3)” value (primary human MSC cells; [1]) was 3.2853 fold, the “Fold Up-Regulation TGFBR1 (Transforming growth factor, beta receptor 1)” value (primary human MSC cells; [1]) was 1.5219 fold and the “Fold Up-Regulation TGFBR2 (Transforming growth factor, beta receptor II)” value (primary human MSC cells; [1]) was −1.7799 fold. The “Fold Up-Regulation TNF (Tumor necrosis factor)” value (primary human MSC cells; [1]) was 2.7072 fold, the “Fold Up-Regulation TUFT1 (Tuftelin 1)” value (primary human MSC cells; [1]) was −4.5431 fold and the “Fold Up-Regulation TWIST1 (Twist homolog 1)” value (primary human MSC cells; [1]) was −1.6813 fold. The “Fold Up-Regulation VCAM1 (Vascular cell adhesion molecule 1)” value (primary human MSC cells; [1]) was −1.1098 fold, the “Fold Up-Regulation VDR (Vitamin D (1,25-dihydroxyvitamin D3) receptor)” value (primary human MSC cells; [1]) was −6.6007 fold and the “Fold Up-Regulation VEGFA (Vascular endothelial growth factor A)” value (primary human MSC cells; [1]) was 1.3548 fold. For the same molecule, the “Fold Up-Regulation VEGFB (Vascular endothelial growth factor B)” value (primary human MSC cells; [1]) was 1.2749 fold, the “increase in bone volume (BV) vs rhBMP-2 alone” value (quadriceps of mice; 25 μg with 10 μg rhBMP-2, mice quadriceps, 3 weeks, microCT, parametric P=0.02, nonparametric P<0.01) was “statistically significant” and the “bone formation, CSA alone” value (quadriceps of mice; 250 μg alone without rhBMP-2, muscle pouch model, mice, 3 weeks, microCT (FIG. 7)) was “appears to also result in bone formation”. The “increase in bone volume (BV) vs rhBMP-2 alone” value (quadriceps of mice; 250 μg with 10 μg rhBMP-2, mice quadriceps, 3 weeks, microCT, parametric P<0.01, nonparametric P<0.01) was “statistically significant” and the “increase of ectopic bone volume induced by rhBMP-2 treatment” value (quadriceps of mice; mice quadriceps, 10 μg rhBMP-2 plus CSA-90, 3 weeks, microCT, vs rhBMP-2 alone) was “about 3.2 fold”.
